The results in this text go back to ChEMBL document CHEMBL1201862, “PubChem BioAssay data set” (2004).

For assay [1], the target named is Proto-oncogene tyrosine-protein kinase ROS (Homo sapiens, UniProt P08922). The format is functional.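 Also: ROS1 tested as one member of a kinome-wide kinase panel.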
The target in assay [2] is Tyrosine-protein kinase Lyn (Homo sapiens, UniProt P07948). It counts as functional.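 Also: lyn as one member of a kinase panel.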
The target of assay [3] is Mitogen-activated protein kinase 14 (Homo sapiens, UniProt Q16539). It counts as functional.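 Also: part of a kinome-wide panel, MAPK14 entry.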
Sequence of Mitogen-activated protein kinase 14 (Q16539 whole entry): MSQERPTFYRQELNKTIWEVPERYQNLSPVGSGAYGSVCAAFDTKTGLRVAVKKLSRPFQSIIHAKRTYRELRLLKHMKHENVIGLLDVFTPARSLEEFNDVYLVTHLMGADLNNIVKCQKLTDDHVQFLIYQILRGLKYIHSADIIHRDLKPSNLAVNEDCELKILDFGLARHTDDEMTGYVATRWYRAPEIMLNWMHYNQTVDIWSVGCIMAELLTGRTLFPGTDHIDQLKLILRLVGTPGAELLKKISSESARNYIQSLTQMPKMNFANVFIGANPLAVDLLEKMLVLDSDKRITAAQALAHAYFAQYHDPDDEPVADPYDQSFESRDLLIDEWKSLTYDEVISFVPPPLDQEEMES
The target of assay [4] is T1, Interleukin-1 receptor-associated kinase 4 (Homo sapiens, UniProt Q9NWZ3).
T1 sequence (Q9NWZ3 whole entry): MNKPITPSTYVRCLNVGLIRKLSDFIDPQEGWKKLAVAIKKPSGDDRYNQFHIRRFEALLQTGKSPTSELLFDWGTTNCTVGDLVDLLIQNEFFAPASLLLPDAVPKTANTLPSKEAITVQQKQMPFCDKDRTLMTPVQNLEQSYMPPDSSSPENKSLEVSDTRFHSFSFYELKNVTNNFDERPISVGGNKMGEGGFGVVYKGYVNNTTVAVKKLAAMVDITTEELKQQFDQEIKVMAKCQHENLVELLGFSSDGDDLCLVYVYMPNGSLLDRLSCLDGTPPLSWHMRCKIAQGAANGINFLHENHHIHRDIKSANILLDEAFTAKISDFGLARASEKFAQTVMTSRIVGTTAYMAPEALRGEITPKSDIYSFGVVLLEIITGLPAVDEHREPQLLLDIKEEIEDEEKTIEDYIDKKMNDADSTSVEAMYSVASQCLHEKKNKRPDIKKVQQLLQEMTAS
It counts as functional.

Assay [5] deals with Tyrosine-protein kinase Fer (Homo sapiens, UniProt P16591). It counts as functional.
The target of assay [6] is Tyrosine-protein kinase SYK (Homo sapiens, UniProt P43405). The format is functional.
For assay [7], the target named is cAMP-dependent protein kinase catalytic subunit PRKX (Homo sapiens, UniProt P51817). The format is functional.
Sequence of cAMP-dependent protein kinase catalytic subunit PRKX (P51817 whole entry): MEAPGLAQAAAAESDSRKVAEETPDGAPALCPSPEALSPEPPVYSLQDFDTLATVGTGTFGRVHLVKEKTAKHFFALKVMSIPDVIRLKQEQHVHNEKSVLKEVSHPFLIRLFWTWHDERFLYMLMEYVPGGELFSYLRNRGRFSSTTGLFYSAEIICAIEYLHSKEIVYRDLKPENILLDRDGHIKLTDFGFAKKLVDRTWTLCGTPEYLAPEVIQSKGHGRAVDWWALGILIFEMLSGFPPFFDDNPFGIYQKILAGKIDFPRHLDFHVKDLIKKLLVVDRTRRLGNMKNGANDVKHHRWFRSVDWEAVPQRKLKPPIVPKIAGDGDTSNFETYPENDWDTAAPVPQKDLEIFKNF
The target in assay [8] is Mast/stem cell growth factor receptor Kit (Homo sapiens, UniProt P10721). The format is functional.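 Also: KIT entry within a kinase panel assay.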
Sequence of Mast/stem cell growth factor receptor Kit (P10721 whole entry): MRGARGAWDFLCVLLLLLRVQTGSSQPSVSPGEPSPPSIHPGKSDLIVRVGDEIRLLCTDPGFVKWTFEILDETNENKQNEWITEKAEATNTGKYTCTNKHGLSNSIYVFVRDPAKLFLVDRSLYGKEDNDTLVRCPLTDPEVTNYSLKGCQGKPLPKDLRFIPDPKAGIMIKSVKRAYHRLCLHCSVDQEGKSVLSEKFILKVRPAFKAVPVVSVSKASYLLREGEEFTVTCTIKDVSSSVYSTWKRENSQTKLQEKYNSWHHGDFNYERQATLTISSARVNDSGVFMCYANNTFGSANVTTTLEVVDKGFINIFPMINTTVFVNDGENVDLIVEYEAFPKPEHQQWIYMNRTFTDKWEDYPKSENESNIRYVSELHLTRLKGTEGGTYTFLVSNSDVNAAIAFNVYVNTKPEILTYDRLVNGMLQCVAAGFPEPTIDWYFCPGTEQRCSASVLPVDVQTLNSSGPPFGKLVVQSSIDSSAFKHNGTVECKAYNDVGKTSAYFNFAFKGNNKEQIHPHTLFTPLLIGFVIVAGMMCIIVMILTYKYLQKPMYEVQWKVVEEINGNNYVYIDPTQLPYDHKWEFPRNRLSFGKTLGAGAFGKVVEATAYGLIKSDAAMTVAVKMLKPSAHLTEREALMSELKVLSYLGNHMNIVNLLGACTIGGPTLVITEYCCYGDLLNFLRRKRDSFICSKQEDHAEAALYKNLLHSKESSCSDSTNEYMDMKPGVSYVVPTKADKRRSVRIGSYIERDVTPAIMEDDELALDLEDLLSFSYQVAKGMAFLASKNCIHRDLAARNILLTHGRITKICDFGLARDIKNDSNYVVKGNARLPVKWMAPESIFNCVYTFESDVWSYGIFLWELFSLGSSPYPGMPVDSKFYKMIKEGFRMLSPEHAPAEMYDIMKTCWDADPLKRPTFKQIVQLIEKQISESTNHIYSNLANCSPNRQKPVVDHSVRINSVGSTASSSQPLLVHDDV
For assay [9], the target named is Protein kinase C gamma type (Homo sapiens, UniProt P05129). The format is functional.
The target of assay [10] is Homeodomain-interacting protein kinase 4 (Homo sapiens, UniProt Q8NE63). The format is functional.
In another assay the target is Ephrin type-A receptor 2 (Homo sapiens, UniProt P29317). The format is functional.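 Also: EPHA2 tested as one member of a kinome-wide kinase panel.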
Sequence of Ephrin type-A receptor 2 (P29317 whole entry): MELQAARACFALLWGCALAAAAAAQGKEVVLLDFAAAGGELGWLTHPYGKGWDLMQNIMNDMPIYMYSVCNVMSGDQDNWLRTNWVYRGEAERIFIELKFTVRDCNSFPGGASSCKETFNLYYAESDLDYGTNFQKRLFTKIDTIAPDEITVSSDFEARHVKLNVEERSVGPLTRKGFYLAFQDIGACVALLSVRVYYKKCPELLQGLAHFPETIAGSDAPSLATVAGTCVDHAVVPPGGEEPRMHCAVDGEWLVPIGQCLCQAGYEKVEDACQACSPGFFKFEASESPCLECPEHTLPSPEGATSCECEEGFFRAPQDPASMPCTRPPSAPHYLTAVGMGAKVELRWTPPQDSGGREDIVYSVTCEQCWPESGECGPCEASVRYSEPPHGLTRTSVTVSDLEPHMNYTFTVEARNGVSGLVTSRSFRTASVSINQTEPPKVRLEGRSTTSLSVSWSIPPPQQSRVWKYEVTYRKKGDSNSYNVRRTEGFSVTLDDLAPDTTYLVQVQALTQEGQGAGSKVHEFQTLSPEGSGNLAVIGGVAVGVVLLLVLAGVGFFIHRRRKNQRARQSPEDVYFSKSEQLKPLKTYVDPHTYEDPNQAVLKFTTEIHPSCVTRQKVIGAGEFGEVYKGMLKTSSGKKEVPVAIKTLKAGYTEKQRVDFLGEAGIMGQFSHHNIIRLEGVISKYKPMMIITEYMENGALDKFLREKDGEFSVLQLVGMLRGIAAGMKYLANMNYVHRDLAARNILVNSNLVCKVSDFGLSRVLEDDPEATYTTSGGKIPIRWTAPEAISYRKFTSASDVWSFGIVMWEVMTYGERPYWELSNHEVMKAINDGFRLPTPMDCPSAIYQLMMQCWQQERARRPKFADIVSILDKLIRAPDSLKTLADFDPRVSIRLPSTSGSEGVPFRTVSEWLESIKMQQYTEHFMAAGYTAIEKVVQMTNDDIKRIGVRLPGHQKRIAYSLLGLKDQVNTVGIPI
A short description of assay [11]: non-specific 3'UTR reporter inhibition in Clone20-Shn3RL – cell-based, Renilla luciferase, cherry-picked, counter-screen for Shn3 inhibitor project, dose response (AID 624133). The format is functional. A general note: The purpose of a counterscreen is to sort out artefacts and off-target activity.
Assay [12] in a line: reduction of Shn3 3'UTR-driven luciferase in osteoblasts – cell-based, Clone20 osteoblasts, firefly luciferase, cherry-picked, dose response (AID 624132).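 Also: firefly luciferase luminescence from reporter carrying the Shn3 3'UTR in osteoblasts.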 The format is functional.
The nature of assay [13]: Trypanosoma cruzi growth suppression in host cells – NIH3T3 host cells, beta-gal luminescence, confirmation (AID 2044).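 Also: intracellular parasites grown in NIH/3T3 mouse fibroblasts as host cells; luminescent beta-galactosidase reporter signal from transgenic T. cruzi replicating inside host cells; inhibitors lower the luminescence signal.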 It counts as functional, cell-based.
The target in assay [14] is T2, Dual specificity protein phosphatase 6 (Rattus norvegicus, UniProt Q64346).
T2 sequence (Q64346 whole entry): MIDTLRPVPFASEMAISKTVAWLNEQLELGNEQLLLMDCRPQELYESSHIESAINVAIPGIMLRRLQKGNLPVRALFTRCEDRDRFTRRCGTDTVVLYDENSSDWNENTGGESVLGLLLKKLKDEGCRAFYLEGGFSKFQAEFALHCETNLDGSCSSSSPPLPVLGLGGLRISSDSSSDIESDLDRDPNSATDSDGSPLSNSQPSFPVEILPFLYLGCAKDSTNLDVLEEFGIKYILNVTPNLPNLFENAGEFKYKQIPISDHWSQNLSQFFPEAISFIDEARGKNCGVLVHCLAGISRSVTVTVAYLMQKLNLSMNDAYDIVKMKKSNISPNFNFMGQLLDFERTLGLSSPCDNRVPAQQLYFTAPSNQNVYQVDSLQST
The experiment in a line: inhibition of rat DUSP6 enzyme activity – biochemical, in vitro, primary screen (AID 425).

Assay [15] addresses T3, Protein RecA (Mycobacterium tuberculosis, UniProt P9WHJ3).
T3 sequence (P9WHJ3 whole entry): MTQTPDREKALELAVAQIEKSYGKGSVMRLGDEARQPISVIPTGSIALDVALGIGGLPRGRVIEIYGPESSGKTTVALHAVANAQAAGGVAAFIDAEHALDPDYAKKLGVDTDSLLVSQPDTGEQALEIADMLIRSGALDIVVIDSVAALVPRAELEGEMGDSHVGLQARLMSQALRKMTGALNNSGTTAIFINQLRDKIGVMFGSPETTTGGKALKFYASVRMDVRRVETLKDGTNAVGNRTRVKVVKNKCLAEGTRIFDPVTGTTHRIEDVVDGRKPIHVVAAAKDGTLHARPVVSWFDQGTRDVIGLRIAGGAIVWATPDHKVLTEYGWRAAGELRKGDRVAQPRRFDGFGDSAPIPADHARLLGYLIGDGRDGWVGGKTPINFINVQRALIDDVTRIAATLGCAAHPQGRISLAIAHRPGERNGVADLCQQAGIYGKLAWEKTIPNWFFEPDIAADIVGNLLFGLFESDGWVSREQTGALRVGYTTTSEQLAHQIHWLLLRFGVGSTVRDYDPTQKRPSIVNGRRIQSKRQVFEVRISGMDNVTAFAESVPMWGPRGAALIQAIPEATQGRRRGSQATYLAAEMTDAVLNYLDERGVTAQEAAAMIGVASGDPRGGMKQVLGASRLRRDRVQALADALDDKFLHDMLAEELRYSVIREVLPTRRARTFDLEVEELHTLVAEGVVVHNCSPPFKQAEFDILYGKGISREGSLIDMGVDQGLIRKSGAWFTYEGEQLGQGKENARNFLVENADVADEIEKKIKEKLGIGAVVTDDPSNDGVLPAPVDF
The experiment in a line: GFP-RecA MOA-DTT Measured in Biochemical System Using Plate Reader - 2047-05_Inhibitor_Dose_DryPowder_Activity. [Related pubchem assays (depositor defined):AID2223]. Also noted: species or system Mycobacterium tuberculosis H37Rv.

Assay [16] in a line: fluconazole-exposed Candida albicans growth modulators – fluorescence, retest, confirmation (AID 2467). It counts as functional, cell-based.
In assay [17] the target is Tyrosine-protein phosphatase non-receptor type 22 (Homo sapiens, UniProt Q9Y2R2). The format is functional.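 Also: confirmatory dose-response retest of primary uHTS hits for inhibition of LYP phosphatase, measured by a fluorescence intensity read-out.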
Sequence of Tyrosine-protein phosphatase non-receptor type 22 (Q9Y2R2 whole entry): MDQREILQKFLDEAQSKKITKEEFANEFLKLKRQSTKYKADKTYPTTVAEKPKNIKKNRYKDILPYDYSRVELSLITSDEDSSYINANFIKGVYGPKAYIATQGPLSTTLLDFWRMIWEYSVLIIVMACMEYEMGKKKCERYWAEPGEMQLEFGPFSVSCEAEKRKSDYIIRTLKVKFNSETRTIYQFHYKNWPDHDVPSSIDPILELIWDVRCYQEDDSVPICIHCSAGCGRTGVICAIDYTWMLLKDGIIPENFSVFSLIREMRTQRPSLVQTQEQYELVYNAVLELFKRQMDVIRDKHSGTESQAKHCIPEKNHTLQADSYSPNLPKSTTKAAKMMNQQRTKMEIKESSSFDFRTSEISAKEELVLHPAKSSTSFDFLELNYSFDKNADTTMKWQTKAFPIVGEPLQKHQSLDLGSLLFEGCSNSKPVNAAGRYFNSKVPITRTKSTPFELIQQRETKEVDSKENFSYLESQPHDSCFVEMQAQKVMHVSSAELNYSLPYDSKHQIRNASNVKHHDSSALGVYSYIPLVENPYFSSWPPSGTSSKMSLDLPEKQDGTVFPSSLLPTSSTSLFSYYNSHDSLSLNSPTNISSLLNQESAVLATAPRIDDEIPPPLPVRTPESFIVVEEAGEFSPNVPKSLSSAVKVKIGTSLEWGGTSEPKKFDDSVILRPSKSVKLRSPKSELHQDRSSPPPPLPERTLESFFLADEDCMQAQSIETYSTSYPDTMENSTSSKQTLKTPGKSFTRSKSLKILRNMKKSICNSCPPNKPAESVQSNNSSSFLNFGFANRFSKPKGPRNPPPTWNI
Assay [18] concerns the target T3, Protein RecA. The experiment in a line: Fluorescence Cell-Free Homogeneous Dose Retest to Identify Inhibitors of RecA-Intein Splicing Activity. [Related pubchem assays (depositor defined):AID2097, AID2223, AID489010, AID492950]. It counts as functional.
The nature of assay [19]: loss of viability in HepG2 cells – cell-based, CellTiter-Glo, cherry-picked, cytotoxicity control for Shn3 inhibitor project, dose response (AID 624134). The format is functional. For orientation: In ATP-based viability assays light output follows the ATP content of the culture.
Another assay deals with Phospholipase A2 (Homo sapiens, UniProt P04054). It counts as functional.
Sequence of Phospholipase A2 (P04054 whole entry): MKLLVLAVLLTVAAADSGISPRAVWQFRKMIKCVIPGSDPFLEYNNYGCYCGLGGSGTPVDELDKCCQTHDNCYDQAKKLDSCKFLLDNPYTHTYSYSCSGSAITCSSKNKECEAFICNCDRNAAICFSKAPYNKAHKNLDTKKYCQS

Active and inactive are the calls of the source.

Sequence of Tyrosine-protein kinase Lyn (P07948 whole entry): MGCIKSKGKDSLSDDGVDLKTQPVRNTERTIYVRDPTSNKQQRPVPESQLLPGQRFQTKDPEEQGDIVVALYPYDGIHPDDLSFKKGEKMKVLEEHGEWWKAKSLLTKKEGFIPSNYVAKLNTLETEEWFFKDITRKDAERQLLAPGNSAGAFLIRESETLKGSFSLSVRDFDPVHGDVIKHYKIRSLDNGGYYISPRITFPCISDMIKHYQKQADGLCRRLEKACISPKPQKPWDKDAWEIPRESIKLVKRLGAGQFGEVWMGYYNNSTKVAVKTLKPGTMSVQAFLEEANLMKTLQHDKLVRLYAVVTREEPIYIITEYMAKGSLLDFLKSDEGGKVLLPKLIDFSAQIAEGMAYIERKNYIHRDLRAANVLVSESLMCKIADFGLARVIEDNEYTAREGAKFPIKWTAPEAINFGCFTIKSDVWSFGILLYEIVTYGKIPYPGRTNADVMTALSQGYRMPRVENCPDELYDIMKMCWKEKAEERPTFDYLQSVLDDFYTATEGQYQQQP

With `COc1cc2c(cc1Nc1nc(Nc3cccc(F)c3C(N)=O)c3cc[nH]c3n1)N(C(=O)CN(C)C)CC2`, the Ki (commonly a measure of affinity in units of concentration, obtained from inhibition or displacement) in assay [1] is 0.00251 µM (active); in assay [2], > 1.58 µM (inactive); in assay [3] it was > 3.98 µM (inactive); in assay [4] it was 10 µM (active); in [5], 0.00158 µM (active); in [6], > 1.58 µM (inactive). Moreover, the Ki in [7] was > 3.16 µM (inactive); in [8], > 1.26 µM (inactive); in assay [9], 1 µM (active); in assay [10], 6.31 µM (active); on Ephrin type-A receptor 2 it was > 3.16 µM (inactive).

For `CCn1nc(/C=C/c2ccccc2)nc2c(=O)n(C)c(=O)nc1-2`, the AC50 – broadly, the concentration at which the activity in the assay is half-maximal – in assay [11] is 5.79 µM (active); in assay [12], 2.57 µM (active); on Protein RecA [15], 0.065 µM (active); in assay [19], 12 µM (active). Further, the values for the EC50 (in assay [13]; in assay [16]; at Protein RecA [18]) were 0.789 µM (active), 0.63 µM (active) and 0.0368 µM (active), respectively. Moreover, the concentration for half-maximal inhibition (IC50) (as a rule, the concentration at which inhibition is half-maximal) was < 1.23 µM (not active) in assay [14], 11.7 µM (active) in assay [17] and > 80 µM (inactive) at Phospholipase A2.
